Measurements reported in patent US11072602B2, “Antidiabetic heterocyclic compounds” (Merck Sharp & Dohme Corp., priority 2016, dated 2021).

Each molecule was assayed against T1, human GPR40 (Homo sapiens, UniProt O14842) (assay: Inositol Phosphate Turnover (IP1) Assay). Conditions: HEK cells stably expressing human GPR40, 7500 cells per well, CisBio IP-One kit.
T1 construct: expressed in transfected cells
Format: cell-based
Description: Human GPR40 stable cell-lines were generated in HEK cells. The expression plasmids were transfected using lipofectamine (Life Technologies) following manufacturer's instructions. Stable cell-lines were generated following drug selection and single cell cloning.
The assay was performed in 384-well format. HEK cells stably expressing human GPR40 were plated at 7500 cells per well in growth medium (DMEM/10% fetal calf serum). Cell plates were then incubated 16 hours at 37 degrees in a 5% CO2 incubator. Measurement of Inositol Phosphate Turnover (IP1) was performed using the CisBio IP-One kit (Part number 62IPAPEB). After the 16 hour incubation, the growth media was removed by centrifugation using the BlueWasher (AusWasher GUI Ver. v1.0.1.8) Protocol #21-“Light Dry” and 10 ul of stimulation buffer (prepared as described in the kit) was added to each well. In a separate plate, compounds were diluted in DMSO (200-fold over the final concentration in the assay well) and 50 nl was acoustically transferred to the appropriate well in the assay cell plate. The plates were then incubated for 60 minutes at 37 degrees in a 5% CO2 incubator. 10 ul of detection buffer (also prepared as described in the IP-One kit) was added to each well and the plates were incubated at room temperature for 60 minutes in the dark. The plates were then read in a Perkin Elmer EnVision or equivalent reader able to measure FRET. Fluorescent ratio of emission at 665 and 620 nm was then converted to IP1 concentration by back calculating from an IP1 standard curve prepared at the time of the assay. Data was normalized to % activity using a reference compound and EC50s determined using a standard 4-parameter fit.

T1 sequence (O14842 whole entry): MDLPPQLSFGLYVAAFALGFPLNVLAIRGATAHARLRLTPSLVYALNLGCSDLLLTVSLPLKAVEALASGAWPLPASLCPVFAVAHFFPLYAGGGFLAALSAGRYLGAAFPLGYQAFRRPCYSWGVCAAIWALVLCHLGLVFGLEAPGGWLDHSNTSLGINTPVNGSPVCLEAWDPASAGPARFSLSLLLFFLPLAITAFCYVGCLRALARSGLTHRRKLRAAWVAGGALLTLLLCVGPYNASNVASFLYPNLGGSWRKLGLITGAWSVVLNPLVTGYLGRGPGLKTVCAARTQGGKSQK

First: C[C@H](C(=O)O)[C@H](c1ccc2c(c1)OC(CC1CCN([C@H](C)c3cc(C(F)(F)F)ccc3C(F)(F)F)CC1)CC2)C1CC1 (mixture of isomers) [Example 9, (2S,3R)-3-((RS)-2-((1-((R)-1-(2,5-bis(trifluoromethyl)phenyl)ethyl)piperidin-4-yl)-methyl)chroman-7-yl)-3-cyclopropyl-2-methylpropanoic Acid]
Second: C[C@H](C(=O)O)[C@H](c1ccc2c(c1)OC(CC1CCN([C@@H](C)c3cc(C(F)(F)F)ccc3C(F)(F)F)CC1)CC2)C1CC1 (mixture of isomers) [Example 12, (2S,3R)-3-((RS)-2-((1-((S)-1-(2,5-bis(trifluoro-methyl)phenyl)ethyl)piperi-din-4-yl)methyl)-chroman-7-yl)-3-cyclopropyl-2-methyl-propanoic acid]
The EC50 of the first is 2.9-fold higher: 63.7 nM for the first, 22.3 nM for the second.

Going from `CC(c1cc(F)ccc1C(F)(F)F)N1CC2CC1CC2C1CCc2ccc([C@H](C3CC3)[C@H](C)C(=O)O)cc2O1` (mixture of isomers) [Example 39, (2S,3R)-3-cyclopropyl-3-((R or S)-2-((R or S,R or S)-2-((RS)-1-(5-fluoro-2-(trifluoromethyl)-phenyl)ethyl)-2-azabicyclo-[2.2.1]heptan-5-yl)chroman-7-yl)-2-methylpropanoic acid] to `C[C@H](C(=O)O)[C@H](c1ccc2c(c1)OC(C1CC3CC1CN3[C@H](C)c1cc(F)ccc1C(F)(F)F)CC2)C1CC1` (single isomer, unassigned) [Example 20], the EC50 falls from 44.1 nM to 13.4 nM (3.3-fold). The second is the more potent here.

Compared with `C[C@H](C(=O)O)[C@H](c1ccc2c(c1)OC(CCN(C)Cc1cc(C(F)(F)F)ccc1C(F)(F)F)CC2)C1CC1` (mixture of isomers) [Example 41, (2S,3R)-3-(2-(2-((2,5-bis-(trifluoromethyl)benzyl)(methyl)amino)ethyl)chroman-7-yl)-3-cyclopropyl-2-methylpropanic acid], `C[C@H](C(=O)O)[C@H](c1ccc2c(c1)OC(CC1CCN([C@H](C)c3cc(C(F)(F)F)ccc3C(F)(F)F)CC1)CC2)C1CC1` (single isomer, unassigned) [Example 10, (2S,3R)-3-((R or S)-2-((1-((R)-1-(2,5-bis(trifluoromethyl)phenyl)ethyl)piperidin-4-yl)-methyl)chroman-7-yl)-3-cyclopropyl-2-methylpropanoic Acid] is 3.4-fold higher in EC50: 8.72 nM for the first, 29.3 nM for the second. The first is the more potent here.

First: C[C@H](C(=O)O)[C@H](c1ccc2c(c1)OC(C1[C@@H]3CC[C@H]1CN([C@H](C)c1cc(C(F)(F)F)ccc1C(F)(F)F)C3)CC2)C1CC1 (mixture of isomers) [Example 22, (2S,3R)-3-(2-((1R,5S)-3-((R)-1-(2,5-bis(trifluoromethyl)phenyl)ethyl)-3-azabicyclo[3.2.1]octan-8-yl)chroman-7-yl)-3-cyclopropyl-2-methylpropanoic Acid]
Second: C[C@H](C(=O)O)[C@H](c1ccc2c(c1)OC(C1[C@@H]3CC[C@@H]1CN([C@@H](C)c1cc(C(F)(F)F)ccc1C(F)(F)F)C3)CC2)C1CC1 (single isomer, unassigned) [Example 24]
The EC50 of the first is 4.7-fold higher: 45.6 nM for the first, 9.66 nM for the second. The second is the more potent here.

`C[C@H](C(=O)O)[C@H](c1ccc2c(c1)OC(C1[C@@H]3CC[C@H]1CN([C@H](C)c1cc(C(F)(F)F)ccc1C(F)(F)F)C3)CC2)C1CC1` (mixture of isomers) [Example 23, (2S,3R)-3-(2-((1R,5S)-3-((R)-1-(2,5-bis(trifluoromethyl)phenyl)ethyl)-3-azabicyclo[3.2.1]octan-8-yl)chroman-7-yl)-3-cyclopropyl-2-methylpropanoic Acid] and `C[C@H](C(=O)O)[C@H](c1ccc2c(c1)OC(C1[C@@H]3CC[C@@H]1CN([C@@H](C)c1cc(C(F)(F)F)ccc1C(F)(F)F)C3)CC2)C1CC1` (single isomer, unassigned) [Example 25] are within 1.5-fold of each other in EC50: 49.8 nM for the first, 67.3 nM for the second.

First: C[C@H](C(=O)O)[C@H](c1ccc2c(c1)OC(C1CC3CCCC(C1)N3[C@H](C)c1cc(C(F)(F)F)ccc1C(F)(F)F)CC2)C1CC1 (mixture of isomers) [Example 32, (2S,3R)-3-((RS)-2-((1R,3RS,5S)-9-((R)-1-(2,5-bis(trifluoromethyl)phenyl)ethyl)-9-azabicyclo[3.3.1]nonan-3-yl)chroman-7-yl)-3-cyclopropyl-2-methylpropanoic Acid]
Second: C[C@H](C(=O)O)[C@H](c1ccc2c(c1)OC(C1CC3CCCC(C1)N3[C@@H](C)c1cc(C(F)(F)F)ccc1C(F)(F)F)CC2)C1CC1 (mixture of isomers) [Example 33, (2S,3R)-3-((RS)-2-((1R,3RS,5S)-9-((S)-1-(2,5-bis(trifluoromethyl)-phenyl)ethyl)-9-aza-bicyclo[3.3.1]-nonan-3-yl)chroman-7-yl)-3-cyclopropyl-2-methyl-propanoic acid]
The EC50 of the first is 4.4-fold lower: 171 nM for the first, 750 nM for the second.

`C[C@H](C(=O)O)[C@H](c1ccc2c(c1)OC(C1[C@@H]3COC[C@H]1CN([C@@H](C)c1cc(F)ccc1C(F)(F)F)C3)CC2)C1CC1` (single isomer, unassigned) [Example 7] and `C[C@H](C(=O)O)[C@H](c1ccc2c(c1)OC(C1[C@@H]3CC[C@H]1CN([C@@H](C)c1cc(F)ccc1C(F)(F)F)C3)CC2)C1CC1` (single isomer, unassigned) [Example 26] are within 1.5-fold of each other in EC50: 11.2 nM for the first, 9.68 nM for the second.

First: C[C@H](C(=O)O)[C@H](c1ccc2c(c1)OC(C1[C@@H]3COC[C@H]1CN([C@@H](C)c1cc(F)ccc1C(F)(F)F)C3)CC2)C1CC1 (single isomer, unassigned) [Example 8]
Second: C[C@H](C(=O)O)[C@H](c1ccc2c(c1)OC(C1[C@@H]3CC[C@@H]1CN([C@@H](C)c1cc(F)ccc1C(F)(F)F)C3)CC2)C1CC1 (single isomer, unassigned) [Example 27, (2S,3R)-3-cyclopropyl-3-((2R or 2S)-2-((1R,5S)-3-((S)-1-(5-fluoro-2-(trifluoromethyl)phenyl)ethyl)-3-azabicyclo[3.2.1]-octan-8-yl)chroman-7-yl)-2-methylpropanoic acid]
The EC50 of the first is 1.8-fold lower: 11.2 nM for the first, 20.2 nM for the second. The first is the more potent here.

Compared with `C[C@H](C(=O)O)[C@H](c1ccc2c(c1)OC(CC1CCN([C@H](C)c3cc(C(F)(F)F)ccc3C(F)(F)F)CC1)CC2)C1CC1` (single isomer, unassigned) [Example 11, (2S,3R)-3-((S or R)-2-((1-((R)-1-(2,5-bis(trifluoromethyl)phenyl)ethyl)piperidin-4-yl)methyl)chroman-7-yl)-3-cyclopropyl-2-methylpropanoic Acid], `C[C@H](C(=O)O)[C@H](c1ccc2c(c1)OC(C1[C@@H]3CC[C@@H]1CN([C@@H](C)c1cc(F)ccc1C(F)(F)F)C3)CC2)C1CC1` (single isomer, unassigned) [Example 28, (2S,3R)-3-cyclopropyl-3-((2R or 2S)-2-((1R,5S)-3-((S)-1-(5-fluoro-2-(trifluoromethyl)phenyl)ethyl)-3-azabicyclo[3.2.1]-octan-8-yl)chroman-7-yl)-2-methylpropanoic acid] is 2-fold higher in EC50: 14.1 nM for the first, 28.7 nM for the second.

Compared with `C[C@H](C(=O)O)[C@H](c1ccc2c(c1)OC(C1CC3CC1CN3[C@H](C)c1cc(F)ccc1C(F)(F)F)CC2)C1CC1` (single isomer, unassigned) [Example 21], `C[C@H](C(=O)O)[C@H](c1ccc2c(c1)OC(C1[C@@H]3CC[C@H]1CN([C@@H](C)c1cc(F)ccc1C(F)(F)F)C3)CC2)C1CC1` (single isomer, unassigned) [Example 29] is 23-fold higher in EC50: 3.14 nM for the first, 72.8 nM for the second. The first is the more potent here.
